Common to all, as to assay: cell-based
Assay type in all cases: cell-based

In one experiment the target is hNav1.7 (Homo sapiens, UniProt Q15858). Particulars: Table 12; PatchXpress, tonic block; read-out: PX hNav1.7 Tonic IC50.
The target of the next experiment is hNav1.4 (Homo sapiens, UniProt P35499). Particulars: Table 12; for IC50: PatchXpress, tonic block, read-out: PX hNav1.4 Tonic IC50; for Nav1.4/Nav1.7: ratio of PX tonic IC50 values.
For another experiment, the target named is hNav1.6 (Homo sapiens, UniProt Q9UQD0). Particulars: Table 15; for Nav1.6/Nav1.7: ratio of PX tonic IC50 values; for IC50: read-out: PX hNav1.6 Tonic IC50.

This note sets out measurements from US10344060B2 (priority 2013, dated 2019).

hNav1.4, sequence (P35499 whole entry): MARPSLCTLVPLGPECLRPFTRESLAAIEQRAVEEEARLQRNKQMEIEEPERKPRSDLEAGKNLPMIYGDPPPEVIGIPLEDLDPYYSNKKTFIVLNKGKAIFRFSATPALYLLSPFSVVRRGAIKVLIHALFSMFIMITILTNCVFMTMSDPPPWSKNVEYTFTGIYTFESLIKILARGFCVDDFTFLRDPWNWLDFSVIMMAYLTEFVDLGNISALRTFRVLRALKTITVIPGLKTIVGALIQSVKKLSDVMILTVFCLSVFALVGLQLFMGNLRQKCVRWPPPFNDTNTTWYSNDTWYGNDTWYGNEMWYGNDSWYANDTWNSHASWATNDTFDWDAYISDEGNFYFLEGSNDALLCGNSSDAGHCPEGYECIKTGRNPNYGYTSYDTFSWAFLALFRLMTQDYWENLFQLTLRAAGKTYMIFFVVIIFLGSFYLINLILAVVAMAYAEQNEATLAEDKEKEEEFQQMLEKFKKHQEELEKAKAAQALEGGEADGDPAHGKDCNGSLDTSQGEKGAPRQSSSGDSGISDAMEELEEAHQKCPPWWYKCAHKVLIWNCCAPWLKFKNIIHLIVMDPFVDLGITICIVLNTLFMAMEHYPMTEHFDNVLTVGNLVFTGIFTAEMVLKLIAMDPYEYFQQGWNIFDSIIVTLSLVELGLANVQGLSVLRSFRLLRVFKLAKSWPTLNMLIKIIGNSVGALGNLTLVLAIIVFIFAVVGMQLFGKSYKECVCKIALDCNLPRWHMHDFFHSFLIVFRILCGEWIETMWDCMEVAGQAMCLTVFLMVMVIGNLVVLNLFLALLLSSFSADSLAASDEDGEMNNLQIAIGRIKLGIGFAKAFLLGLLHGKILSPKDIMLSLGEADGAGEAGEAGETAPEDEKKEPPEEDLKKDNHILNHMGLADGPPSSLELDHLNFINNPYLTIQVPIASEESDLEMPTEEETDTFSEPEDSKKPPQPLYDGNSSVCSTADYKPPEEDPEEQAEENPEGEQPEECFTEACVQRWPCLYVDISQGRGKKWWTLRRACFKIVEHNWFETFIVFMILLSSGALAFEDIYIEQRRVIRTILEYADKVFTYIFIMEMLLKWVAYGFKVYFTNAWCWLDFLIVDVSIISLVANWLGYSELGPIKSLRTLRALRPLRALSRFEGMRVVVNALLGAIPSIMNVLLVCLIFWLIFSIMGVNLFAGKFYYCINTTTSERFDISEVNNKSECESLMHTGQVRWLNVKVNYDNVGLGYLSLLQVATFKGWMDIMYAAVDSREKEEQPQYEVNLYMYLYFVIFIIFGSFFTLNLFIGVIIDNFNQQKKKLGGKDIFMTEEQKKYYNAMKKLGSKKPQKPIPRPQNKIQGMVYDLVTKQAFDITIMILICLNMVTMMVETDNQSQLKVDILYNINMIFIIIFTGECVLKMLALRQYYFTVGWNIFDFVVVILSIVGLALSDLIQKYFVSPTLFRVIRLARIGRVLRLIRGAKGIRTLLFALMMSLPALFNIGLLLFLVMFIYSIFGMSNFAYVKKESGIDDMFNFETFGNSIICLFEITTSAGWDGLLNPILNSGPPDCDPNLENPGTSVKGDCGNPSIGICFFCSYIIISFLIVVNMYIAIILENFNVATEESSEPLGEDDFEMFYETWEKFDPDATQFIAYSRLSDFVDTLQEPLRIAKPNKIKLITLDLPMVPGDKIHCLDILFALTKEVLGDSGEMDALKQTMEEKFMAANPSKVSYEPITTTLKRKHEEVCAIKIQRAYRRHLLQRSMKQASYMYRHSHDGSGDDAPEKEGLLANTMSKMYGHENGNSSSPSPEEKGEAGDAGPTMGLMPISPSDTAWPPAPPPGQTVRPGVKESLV
hNav1.7, sequence (Q15858 whole entry): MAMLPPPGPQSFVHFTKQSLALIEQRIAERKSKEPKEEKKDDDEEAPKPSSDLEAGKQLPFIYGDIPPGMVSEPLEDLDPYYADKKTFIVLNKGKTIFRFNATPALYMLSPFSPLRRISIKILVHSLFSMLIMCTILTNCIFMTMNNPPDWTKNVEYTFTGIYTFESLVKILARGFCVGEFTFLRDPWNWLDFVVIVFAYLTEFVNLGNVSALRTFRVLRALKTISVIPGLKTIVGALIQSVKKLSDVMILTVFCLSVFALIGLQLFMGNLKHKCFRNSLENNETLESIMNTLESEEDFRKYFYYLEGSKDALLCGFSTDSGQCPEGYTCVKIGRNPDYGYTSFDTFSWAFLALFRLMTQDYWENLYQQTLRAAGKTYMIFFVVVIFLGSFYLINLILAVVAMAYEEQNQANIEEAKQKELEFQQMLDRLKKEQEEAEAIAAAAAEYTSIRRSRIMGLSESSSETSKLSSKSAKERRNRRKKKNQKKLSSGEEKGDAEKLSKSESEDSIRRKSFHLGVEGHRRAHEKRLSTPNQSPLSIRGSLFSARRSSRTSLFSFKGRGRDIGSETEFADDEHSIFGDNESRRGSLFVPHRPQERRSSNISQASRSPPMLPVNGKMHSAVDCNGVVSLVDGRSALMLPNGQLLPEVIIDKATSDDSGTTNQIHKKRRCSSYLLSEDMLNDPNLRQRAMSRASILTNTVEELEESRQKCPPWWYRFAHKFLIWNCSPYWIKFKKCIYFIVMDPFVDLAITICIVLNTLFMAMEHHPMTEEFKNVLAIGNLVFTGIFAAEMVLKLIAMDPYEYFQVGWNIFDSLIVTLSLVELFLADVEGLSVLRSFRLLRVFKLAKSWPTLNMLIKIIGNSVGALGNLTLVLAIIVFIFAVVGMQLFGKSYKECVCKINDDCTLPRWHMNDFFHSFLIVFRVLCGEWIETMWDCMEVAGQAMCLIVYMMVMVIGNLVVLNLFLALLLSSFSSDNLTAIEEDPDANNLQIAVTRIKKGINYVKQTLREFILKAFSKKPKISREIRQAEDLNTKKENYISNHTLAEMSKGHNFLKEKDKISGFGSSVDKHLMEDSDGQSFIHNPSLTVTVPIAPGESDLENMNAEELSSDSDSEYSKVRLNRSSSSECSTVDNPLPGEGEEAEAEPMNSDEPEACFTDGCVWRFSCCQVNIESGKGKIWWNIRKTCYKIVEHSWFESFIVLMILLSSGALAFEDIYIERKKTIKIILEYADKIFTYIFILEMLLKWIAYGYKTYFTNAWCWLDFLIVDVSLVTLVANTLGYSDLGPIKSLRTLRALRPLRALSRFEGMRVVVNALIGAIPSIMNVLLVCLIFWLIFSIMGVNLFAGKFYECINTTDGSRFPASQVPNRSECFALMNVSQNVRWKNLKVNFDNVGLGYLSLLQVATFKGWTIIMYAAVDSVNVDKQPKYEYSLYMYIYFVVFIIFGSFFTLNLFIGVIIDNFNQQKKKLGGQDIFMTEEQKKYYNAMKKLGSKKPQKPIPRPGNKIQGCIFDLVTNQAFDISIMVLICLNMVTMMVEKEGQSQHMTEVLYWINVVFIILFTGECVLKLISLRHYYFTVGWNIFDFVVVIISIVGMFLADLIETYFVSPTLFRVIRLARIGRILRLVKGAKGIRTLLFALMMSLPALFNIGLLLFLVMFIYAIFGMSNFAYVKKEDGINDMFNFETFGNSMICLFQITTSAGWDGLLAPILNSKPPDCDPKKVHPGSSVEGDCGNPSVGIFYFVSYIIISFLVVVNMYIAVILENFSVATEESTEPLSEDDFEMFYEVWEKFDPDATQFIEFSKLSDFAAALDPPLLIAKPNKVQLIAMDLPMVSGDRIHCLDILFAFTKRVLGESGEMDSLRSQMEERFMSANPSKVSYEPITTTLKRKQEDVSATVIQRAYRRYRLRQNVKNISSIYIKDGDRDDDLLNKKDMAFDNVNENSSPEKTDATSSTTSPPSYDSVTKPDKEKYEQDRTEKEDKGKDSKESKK

As a reminder, the IC50 is the concentration that gives 50% inhibition. Turning to `C#CC[C@H](N)C(=O)N[C@@H](Cc1ccc(O)cc1)C(=O)N[C@H]1CSSC[C@@H]2NC(=O)[C@@H]3CSSC[C@@H](C(=O)N[C@@H](CCCNC(=N)N)C(=O)N[C@@H](CCCCN)C(=O)N[C@@H](CC(=O)O)C(=O)N[C@H](C(N)=O)[C@@H](C)CC)NC(=O)[C@H](Cc4c[nH]c5ccccc45)NC(=O)[C@H](CC(C)C)NC(=O)[C@H](CCCCN)NC(=O)[C@H](CSSC[C@H](NC(=O)[C@H]([C@@H](C)O)NC(=O)[C@H](Cc4c[nH]c5ccccc45)NC(=O)[C@H](CCCC)NC(=O)[C@H](Cc4c[nH]c5ccccc45)NC(=O)[C@H](CCCCN)NC(=O)[C@H](CCC(N)=O)NC1=O)C(=O)N[C@@H](CC(=O)O)C(=O)N[C@@H](CO)C(=O)N[C@@H](CCCCN)C(=O)N[C@@H](CCCNC(=N)N)C(=O)N[C@@H](C)C(=O)N3)NC(=O)[C@H](CCCNC(=N)N)NC(=O)[C@H](CC(C)C)NC(=O)CNC(=O)[C@H](CCC(=O)O)NC2=O` [compound 723], the IC50 at hNav1.7 turned out to be 5.98 nM. Moreover, at hNav1.4, the IC50 came out at 78.4 nM and the Nav1.4/Nav1.7 turned out to be 13. Moreover, at hNav1.6, the Nav1.6/Nav1.7 was 270 and the IC50 stood at 1620 nM.

For `C#CC[C@H](N)C(=O)N[C@@H](CCC(=O)O)C(=O)N[C@H]1CSSC[C@@H]2NC(=O)[C@@H]3CSSC[C@@H](C(=O)N[C@@H](CCCNC(=N)N)C(=O)N[C@@H](CCCCN)C(=O)N[C@@H](CCC(=O)O)C(=O)N[C@H](C(N)=O)[C@@H](C)CC)NC(=O)[C@H](Cc4c[nH]c5ccccc45)NC(=O)[C@H](CC(C)C)NC(=O)[C@H](CCCCN)NC(=O)[C@H](CSSC[C@H](NC(=O)[C@H]([C@@H](C)O)NC(=O)[C@H](Cc4c[nH]c5ccccc45)NC(=O)[C@H](CCCC)NC(=O)[C@H](Cc4c[nH]c5ccccc45)NC(=O)[C@H](CCCCN)NC(=O)[C@H](CCC(N)=O)NC1=O)C(=O)N[C@@H](CC(=O)O)C(=O)N[C@@H](CO)C(=O)N[C@@H](CCCCN)C(=O)N[C@@H](CCCNC(=N)N)C(=O)N[C@@H](CCC(=O)O)C(=O)N3)NC(=O)[C@H](CCCNC(=N)N)NC(=O)[C@H](CC(C)C)NC(=O)CNC(=O)[C@H](CCC(=O)O)NC2=O` [compound 743], the IC50 at hNav1.7 was 1.36 nM. At hNav1.4, the concentration for half-maximal inhibition (IC50) was determined as 670 nM and the Nav1.4/Nav1.7 is 494. For the same compound, at hNav1.6, the Nav1.6/Nav1.7 is on record as 1727 and the IC50 was found to be 2340 nM.

With `C#CC[C@@H]1NC(=O)[C@@H]2CSSC[C@H](NC(=O)[C@H](Cc3ccc(O)cc3)NC(=O)[C@@H](N)CC#N)C(=O)N[C@@H](CCC(N)=O)C(=O)N[C@@H](CCCCN)C(=O)N[C@@H](Cc3c[nH]c4ccccc34)C(=O)N[C@@H](CCCC)C(=O)N[C@@H](Cc3c[nH]c4ccccc34)C(=O)N[C@@H]([C@@H](C)O)C(=O)N[C@H]3CSSC[C@H](NC(=O)[C@H](CCCNC(=N)N)NC(=O)[C@H](CC(C)C)NC(=O)CNC1=O)C(=O)N[C@@H](CCCCN)C(=O)N[C@@H](CC(C)C)C(=O)N[C@@H](Cc1c[nH]c4ccccc14)C(=O)N[C@H](C(=O)N[C@@H](CCCNC(=N)N)C(=O)N[C@@H](CCCCN)C(=O)N[C@@H](CCC(=O)O)C(=O)N[C@H](C(N)=O)[C@@H](C)CC)CSSC[C@H](NC(=O)[C@H](C)NC(=O)[C@H](CCCNC(=N)N)NC(=O)[C@H](CCC(=O)O)NC(=O)[C@H](CO)NC(=O)[C@H](CC(=O)O)NC3=O)C(=O)N2` [compound 732], the IC50 at hNav1.7 came to 0.87 nM; on hNav1.4 it was 253 nM; on hNav1.6 it was 1720 nM. Besides, the Nav1.4/Nav1.7 on hNav1.4 was found to be 291. Further, the Nav1.6/Nav1.7 on hNav1.6 was 1972.

On to `C#CC[C@H](N)C(=O)N[C@@H](CCC(=O)O)C(=O)N[C@H]1CSSC[C@@H]2NC(=O)[C@@H]3CSSC[C@@H](C(=O)N[C@@H](CCCNC(=N)N)C(=O)N[C@@H](CCCCN)C(=O)N[C@@H](CCC(=O)O)C(=O)N[C@H](C(N)=O)[C@@H](C)CC)NC(=O)[C@H](Cc4c[nH]c5ccccc45)NC(=O)[C@H](CC(C)C)NC(=O)[C@H](CCCCN)NC(=O)[C@H](CSSC[C@H](NC(=O)[C@H]([C@@H](C)O)NC(=O)[C@H](Cc4c[nH]c5ccccc45)NC(=O)[C@H](CCCC)NC(=O)[C@H](Cc4c[nH]c5ccccc45)NC(=O)[C@H](CCCCN)NC(=O)[C@H](CCC(N)=O)NC1=O)C(=O)N[C@@H](CC(=O)O)C(=O)N[C@@H](CCC(=O)O)C(=O)N[C@@H](CCCCN)C(=O)N[C@@H](CCCNC(=N)N)C(=O)N[C@@H](C)C(=O)N3)NC(=O)[C@H](CCCNC(=N)N)NC(=O)[C@H](CC(C)C)NC(=O)CNC(=O)[C@H](CCC(=O)O)NC2=O` [compound 739], for which the IC50 came to 5.55 nM at hNav1.7, 1280 nM at hNav1.4 and 2190 nM at hNav1.6. Further, the Nav1.4/Nav1.7 at hNav1.4 worked out at 231. Besides, at hNav1.6, the Nav1.6/Nav1.7 is recorded as 395.

Take `C#CC[C@H](NC(=O)[C@@H](N)CCC(=O)O)C(=O)N[C@H]1CSSC[C@@H]2NC(=O)[C@@H]3CSSC[C@@H](C(=O)N[C@@H](CCCNC(=N)N)C(=O)N[C@@H](CCCCN)C(=O)N[C@@H](CCC(=O)O)C(=O)N[C@H](C(N)=O)[C@@H](C)CC)NC(=O)[C@H](Cc4c[nH]c5ccccc45)NC(=O)[C@H](CC(C)C)NC(=O)[C@H](CCCCN)NC(=O)[C@H](CSSC[C@H](NC(=O)[C@H]([C@@H](C)O)NC(=O)[C@H](Cc4c[nH]c5ccccc45)NC(=O)[C@H](CCCC)NC(=O)[C@H](Cc4c[nH]c5ccccc45)NC(=O)[C@H](CCCCN)NC(=O)[C@H](CCC(N)=O)NC1=O)C(=O)N[C@@H](CC(=O)O)C(=O)N[C@@H](CCC(=O)O)C(=O)N[C@@H](CCCCN)C(=O)N[C@@H](CCCNC(=N)N)C(=O)N[C@@H](C)C(=O)N3)NC(=O)[C@H](CCCNC(=N)N)NC(=O)[C@H](CC(C)C)NC(=O)CNC(=O)[C@H](CCC(=O)O)NC2=O` [compound 736]: the IC50 is 1.46 nM on hNav1.7, 547 nM at hNav1.4 and 2520 nM on hNav1.6. The Nav1.4/Nav1.7 on hNav1.4 amounted to 375. For the same compound, on hNav1.6, the Nav1.6/Nav1.7 is recorded as 1730.

On to `C#CC[C@@H]1NC(=O)[C@@H]2CSSC[C@H](NC(=O)[C@H](Cc3ccc(O)cc3)NC(=O)[C@@H](N)CC#N)C(=O)N[C@@H](CCC(N)=O)C(=O)N[C@@H](CCCCN)C(=O)N[C@@H](Cc3c[nH]c4ccccc34)C(=O)N[C@@H](CCCC)C(=O)N[C@@H](Cc3c[nH]c4ccccc34)C(=O)N[C@@H]([C@@H](C)O)C(=O)N[C@H]3CSSC[C@H](NC(=O)[C@H](CCCNC(=N)N)NC(=O)[C@H](CC(C)C)NC(=O)CNC1=O)C(=O)N[C@@H](CCCCN)C(=O)N[C@@H](CC(C)C)C(=O)N[C@@H](Cc1c[nH]c4ccccc14)C(=O)N[C@H](C(=O)N[C@@H](CCCNC(=N)N)C(=O)N[C@@H](CCCCN)C(=O)N[C@@H](CCC(=O)O)C(=O)N[C@H](C(N)=O)[C@@H](C)CC)CSSC[C@H](NC(=O)[C@H](CCC(=O)O)NC(=O)[C@H](CCCNC(=N)N)NC(=O)[C@H](CCCCN)NC(=O)[C@H](CO)NC(=O)[C@H](CC(=O)O)NC3=O)C(=O)N2` [compound 733], for which the IC50 on hNav1.7 was found to be 1.19 nM. On hNav1.4, the IC50 came to 130 nM and the Nav1.4/Nav1.7 stood at 109. Further, at hNav1.6, the Nav1.6/Nav1.7 came out at 147 and the IC50 is 175 nM.

Take `C#CC[C@H](N)C(=O)N[C@@H](Cc1ccc(O)cc1)C(=O)N[C@H]1CSSC[C@@H]2NC(=O)[C@@H]3CSSC[C@@H](C(=O)N[C@@H](CCCNC(=N)N)C(=O)N[C@@H](CCCCN)C(=O)N[C@@H](CCC(=O)O)C(=O)N[C@H](C(N)=O)[C@@H](C)CC)NC(=O)[C@H](Cc4c[nH]c5ccccc45)NC(=O)[C@H](CC(C)C)NC(=O)[C@H](CCCCN)NC(=O)[C@H](CSSC[C@H](NC(=O)[C@H](CCC(=O)O)NC(=O)[C@H](Cc4c[nH]c5ccccc45)NC(=O)[C@H](CCCC)NC(=O)[C@H](Cc4c[nH]c5ccccc45)NC(=O)[C@H](CCCCN)NC(=O)[C@H](CCC(N)=O)NC1=O)C(=O)N[C@@H](CC(=O)O)C(=O)N[C@@H](CO)C(=O)N[C@@H](CCCCN)C(=O)N[C@@H](CCCNC(=N)N)C(=O)N[C@@H](C)C(=O)N3)NC(=O)[C@H](CCCNC(=N)N)NC(=O)[C@H](CC(C)C)NC(=O)CNC(=O)[C@H](CCC(=O)O)NC2=O` [compound 712]: the IC50 at hNav1.7 was 16.4 nM; at hNav1.4, 1580 nM; at hNav1.6 it was 6460 nM. The Nav1.4/Nav1.7 on hNav1.4 was found to be 97. Besides, the Nav1.6/Nav1.7 on hNav1.6 stood at 395.

Regarding `C#CC[C@H](NC(=O)[C@@H](N)CCC(=O)O)C(=O)N[C@@H](Cc1ccc(O)cc1)C(=O)N[C@H]1CSSC[C@@H]2NC(=O)[C@@H]3CSSC[C@@H](C(=O)N[C@@H](CCCNC(=N)N)C(=O)N[C@@H](CCCCN)C(=O)N[C@@H](CCC(=O)O)C(=O)N[C@H](C(N)=O)[C@@H](C)CC)NC(=O)[C@H](Cc4c[nH]c5ccccc45)NC(=O)[C@H](CC(C)C)NC(=O)[C@H](CCCCN)NC(=O)[C@H](CSSC[C@H](NC(=O)[C@H]([C@@H](C)O)NC(=O)[C@H](Cc4c[nH]c5ccccc45)NC(=O)[C@H](CCCC)NC(=O)[C@H](Cc4c[nH]c5ccccc45)NC(=O)[C@H](CCCCN)NC(=O)[C@H](CCC(N)=O)NC1=O)C(=O)N[C@@H](CC(=O)O)C(=O)N[C@@H](CCC(=O)O)C(=O)N[C@@H](CCCCN)C(=O)N[C@@H](CCCNC(=N)N)C(=O)N[C@@H](C)C(=O)N3)NC(=O)[C@H](CCCNC(=N)N)NC(=O)[C@H](CC(C)C)NC(=O)CNC(=O)[C@H](CCC(=O)O)NC2=O` [compound 734], the IC50 at hNav1.7 came out at 2.33 nM. Further, at hNav1.4, the IC50 came to 1050 nM and the Nav1.4/Nav1.7 is listed as 452. In addition, at hNav1.6, the Nav1.6/Nav1.7 was found to be 1233 and the IC50 stood at 2870 nM.
